A short description of series [1]: Pharmacokinetics in rats after intragastric administration. The following applies: SD, rat, plasma, po, 50 mg/kg.
Experimental: (§1) Healthy adult SD rats (n=3 per group) were fasted overnight (free access to water), and then were administrated the drugs by intragastric administration (i.g.) (50 mg/kg). 0.1 mL of blood was collected from the jugular venous plexus of the rats at 15 minutes, 30 minutes, 1 hour, 2 hours, 4 hours, 6 hours, 8 hours, 24 hours after administration. All blood samples were anticoagulated with K2EDTA, then centrifuged at 3500 rpm at 5° C. for 10 minutes to separate plasma, and stored at −20° C. for test. Parent drug concentration in plasma was determined by LC/MS/MS method.
A short description of the next series: in vivo. The following applies: SD, rat, po, 50 mg/kg.

SMILES strings stand for the structures.

This note sets out measurements from US20230059087A1, “CANNABIDIOL DERIVATIVES, PREPARATION METHOD THEREOF AND USE THEREOF” (CHENGDU BAIYU PHARMACEUTICAL CO., LTD., priority 2020, published 2023).

Experimental for in vivo: as §1

The AUC(0-inf) is total exposure, with the tail of the curve extrapolated. By AUC(0-t) is commonly meant the area under the concentration-time curve up to a stated or last time point. Read a high AUC(0-t) as more exposure. The term Cmax denotes the peak of the concentration-time curve. What is called Tmax is the time at which the peak concentration occurs. In general, half-life refers to how long it takes for the measured level to halve. Higher therefore signals slow decline. `[2H]C([2H])([2H])C1=C[C@@H](c2c(O)cc(CCCCC)cc2O)[C@H](C(=C)C)CC1([2H])[2H]` [Example 13, (1′R,2′R)-5′-(methyl-d3)-4-pentyl-2′-(prop-1-en-2-yl)-1′,2′,3′,4′-tetrahydro-[1,1′-biphenyl]-4′,4′-d2-2,6-diol]: in series [1], the total exposure AUC(0-inf) was determined as 6180 ng·h/mL, the area under the curve AUC(0-t) was 5980 ng·h/mL, the concentration peaked (Cmax) at 871 ng/mL and the time of peak concentration (Tmax) is 2 h. This molecule also gave a half-life in series [1] of 360 min.

With `[2H]C([2H])([2H])C1=C[C@H](c2c(O)cc(CCCCC)c(C(=O)O)c2O)[C@@H](C(=C)C)CC1` [Example 23], in series [1], the area under the curve AUC(0-inf) amounted to 8230 ng·h/mL, the AUC(0-t) stood at 6980 ng·h/mL, the Cmax came to 977 ng/mL and the time to peak (Tmax) is 1.75 h. The molecule also had a half-life in series [1] of 390 min.

On to `[2H]C([2H])=C([C@@H]1CCC(C([2H])([2H])[2H])=C[C@H]1c1c(O)cc(CCCCC)cc1O)C([2H])([2H])[2H]` [Example 7, (1′R,2′R)-5′-(methyl-d3)-4-pentyl-2′-(prop-1-en-2-yl-d5)-1′,2′,3′,4′-tetrahydro-[1,1′-biphenyl]-2,6-diol], for which, in series [1], the AUC(0-inf) stood at 6290 ng·h/mL, the AUC(0-t) worked out at 5830 ng·h/mL, the Cmax is 901 ng/mL and the Tmax was 2.2 h. In addition, the half-life in series [1] is 390 min.

On to `[2H]C([2H])([2H])C1=C[C@H](c2c(O)cc(CCC)cc2O)C(C(=C)C)CC1` (stereo in doubt) [Example 3, 5′-(methyl-d3)-2′-(prop-1-en-2-yl)-4-propyl-1′,2′,3′,4′-tetrahydro-[1,1′-biphenyl]-2,6-diol], for which, in the series “in vivo”, the total exposure AUC(0-inf) is 4480 ng·h/mL, the AUC(0-t) was 4230 ng·h/mL, the Cmax was determined as 795 ng/mL and the time of peak concentration (Tmax) worked out at 2.1 h. The half-life in the series “in vivo” is 294 min.

Consider `[2H]C([2H])([2H])C1=C[C@@H](c2c(O)cc(CCCCCCC)cc2O)[C@H](C(=C)C)CC1` [Example 9, (1′R,2′R)-4-heptyl-5′-(methyl-d3)-2′-(prop-1-en-2-yl)-1′,2′,3′,4′-tetrahydro-[1,1′-biphenyl]-2,6-diol], for which, in series [1], the AUC(0-inf) turned out to be 6480 ng·h/mL, the AUC(0-t) was 6220 ng·h/mL, the Cmax came out at 823 ng/mL and the time of peak concentration (Tmax) is 2 h. The molecule further showed a half-life in series [1] of 474 min.

On to `[2H]C([2H])(O)C1=C[C@@H](c2c(O)cc(CCCCC)cc2O)[C@H](C(=C)C)CC1([2H])[2H]` [Example 16], for which, in series [1], the AUC(0-inf) amounted to 5630 ng·h/mL, the area under the curve AUC(0-t) stood at 5490 ng·h/mL, the peak concentration (Cmax) was 860 ng/mL and the time to peak (Tmax) was found to be 1.5 h. The same molecule had a half-life in series [1] of 348 min.

Regarding `C=C(C)[C@@H]1CCC(C)=C[C@H]1c1c(O)cc(CCCCC)cc1O` [CBD, cannabidiol], in series [1], the AUC(0-inf) turned out to be 4500 ng·h/mL, the AUC(0-t) amounted to 4460 ng·h/mL, the peak concentration (Cmax) amounted to 784 ng/mL and the time to peak (Tmax) was 2 h. For the same molecule, the half-life in series [1] is 288 min.
